Where two headings read alike, the source gives them in different places.
How the values were obtained:
[1] = tested on: MLKL phosphorylation in HT29-L23 human colorectal adenocarcinoma cells; experiment: MLKL Phosphorylation High-Content Assay; format: cell-based; conditions: 6 h, necroptosis induced with TNFα, SMAC mimetic and Z-VAD, read-out: pMLKL (IC50)
Outline: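 HT29-L23 cells pretreated 30 min at 37 °C with compound (6.25 to 0.106 μM final), then necroptosis induced with TNFα 35 ng/mL, SMAC mimetic 700 nM and Z-VAD 140 nM for 6 h. Fixed cells immunostained for MLKL pS358 and imaged; IC50 and Ymax from 4-parameter logistic fit.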

[2] = molecular target: His-GST-TVMV-hRIPK1(1-324) (Homo sapiens (Human), UniProt Q13546); experiment: RIPK1 HTRF Binding Assay; conditions: HTRF binding, 1 h at rt; read-out: RIPK1 (IC50)
Chain of His-GST-TVMV-hRIPK1(1-324) (Q13546 1-324): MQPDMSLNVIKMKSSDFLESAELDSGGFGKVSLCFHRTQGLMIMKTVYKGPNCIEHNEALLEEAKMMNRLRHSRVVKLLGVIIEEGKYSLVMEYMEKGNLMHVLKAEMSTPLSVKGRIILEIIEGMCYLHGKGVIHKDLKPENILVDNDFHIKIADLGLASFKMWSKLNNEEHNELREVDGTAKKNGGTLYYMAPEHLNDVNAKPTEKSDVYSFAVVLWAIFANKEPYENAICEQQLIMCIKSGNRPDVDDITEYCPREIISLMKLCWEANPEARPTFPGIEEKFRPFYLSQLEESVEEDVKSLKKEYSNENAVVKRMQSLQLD
Outline: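 HTRF probe-displacement binding: 1 nM His-GST-TVMV-hRIPK1(1-324) (baculovirus construct), 90.6 nM probe, 0.2 nM anti-GST-Tb in 20 mM HEPES, 10 mM MgCl2, 0.015% Brij-35, 4 mM DTT, 0.05 mg/mL BSA. Incubated 1 h at rt; FRET 520/495 nm ratio, inhibition relative to DMSO-only wells.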

Row | Compound | IC50 ([1]; Homo sapiens) | IC50 [2] | IC50 [1]
1 | Cc1ncc(-c2ccc3nc(NC(=O)CO)cn3n2)cc1C(=O)NCc1cc(OC(F)(F)F)ccc1F [Example 39, N-{[2-fluoro-5-(trifluoromethoxy)phenyl]methyl}-5-[2-(2-hydroxyacetamido)imidazo[1,2-b]pyridazin-6-yl]-2-methylpyridine-3-carboxamide] | 119 nM | 55 nM | –
2 | COc1ncc(-c2ccc3nc(NC(C)=O)cn3n2)cc1C(=O)NCc1c(F)ccc(F)c1OC [Example 141, N-[(3,6-difluoro-2-methoxyphenyl)methyl]-5-{2-acetamidoimidazo[1,2-b]pyridazin-6-yl}-2-methoxypyridine-3-carboxamide] | 256 nM | 97 nM | –
3 | Cc1nc(C)c(-c2ccc3nc(NC(=O)CO)cn3n2)cc1C(=O)NCc1cc(OC(F)(F)F)ccc1F [Example 38, N-(2-fluoro-5-(trifluoromethoxy)benzyl)-5-(2-(2-hydroxyacetamido)imidazo[1,2-b]pyridazin-6-yl)-2,6-dimethylnicotinamide] | 34 nM | 13 nM | –
4 | CC(=O)Nc1cn2nc(-c3cncc(C(=O)NCc4cc(OC(F)(F)F)ccc4F)c3)ccc2n1 [Example 237, 5-{2-acetamidoimidazo[1,2-b]pyridazin-6-yl}-N-{[2-fluoro-5-(trifluoromethoxy)phenyl]methyl} pyridine-3-carboxamide] | 77 nM | 45 nM | –
5 | CC(=O)Nc1cn2nc(-c3cc(C(=O)NCC[C@@H](O)c4ccc(Cl)cc4)cc(F)c3C)ccc2n1 [Example 373, N-[(3R)-3-(4-chlorophenyl)-3-hydroxypropyl]-3-{2-acetamidoimidazo [1,2-b]pyridazin-6-yl}-5-fluoro-4-methylbenzamide] | 51 nM | 11 nM | –
6 | O=C(CN1CCC(C(F)(F)F)CC1)Nc1cn2nc(-c3cccc(C(=O)NCC[C@@H](O)c4ccc(Cl)cc4)c3F)ccc2n1 [Example 428, N-[(3R)-3-(4-chlorophenyl)-3-hydroxypropyl]-2-fluoro-3-(2-{2-[4-(trifluoromethyl)piperidin-1-yl]acetamido}imidazo[1,2-b]pyridazin-6-yl)benzamide] | 9 nM | 12 nM | –
7 | COc1ncc(-c2ccc3nc(NC(C)=O)cn3n2)cc1C(=O)NCCC(O)c1ccc(Cl)cc1 (stereo not shown) [Example 23, N-[3-(4-chlorophenyl)-3-hydroxypropyl]-5-{2-acetamidoimidazo[1,2-b]pyridazin-6-yl}-2-methoxypyridine-3-carboxamide] | 127 nM | 124 nM | –
8 | 5-{2- acetamidoimidazo[1,2-b]pyridazin- 6-yl}-N-{[2-fluoro-5- (trifluoromethyl)phenyl]methyl}-2- methoxypyridine-3-carboxamide [Example 146] | – | 17 nM | 48 nM
9 | CC(=O)Nc1cn2nc(-c3ccc(Cl)c(C(=O)NCC[C@H](O)c4ccc(Cl)cc4)c3F)ccc2n1 [Example 390, 6-chloro-N-[(3S)-3-(4-chlorophenyl)-3-hydroxypropyl]-3-{2-acetamidoimidazo [1,2-b]pyridazin-6-yl}-2-fluorobenzamide] | 3 nM | 5 nM | –
10 | [2H]C([2H])([2H])Oc1nc(C)c(-c2ccc3nc(NC(C)=O)cn3n2)cc1C(=O)NC(C)c1ccccc1OC(F)(F)F (single isomer, unassigned) [Example 13-1, 5-{2-acetamidoimidazo[1,2-b]pyridazin-6-yl}-2-(D3)methoxy-6-methyl-N-{1-[2-(trifluoromethoxy)phenyl]ethyl}pyridine-3-carboxamide] | – | 986 nM | > 6250 nM
11 | COc1ncc(-c2ccc3nc(NC(=O)C(C)(C)C#N)cn3n2)cc1C(=O)NCc1cc(F)cc(F)c1OCC1CC1 [Example 8, 5-[2-(2-Cyano-2,2-dimethylacetamido)imidazo[1,2-b]pyridazin-6-yl]-N-{[2-(cyclopropylmethoxy)-3,5-difluorophenyl]methyl}-2-methoxypyridine-3-carboxamide] | 41 nM | 39 nM | –
12 | COc1ncc(-c2ccc3nc(NC(C)=O)cn3n2)cc1C(=O)NCc1cc(C(F)(F)F)ccc1F [Example 111, 5-{2-acetamidoimidazo[1,2-b]pyridazin-6-yl}-N-{[2-fluoro-5-(trifluoromethyl)phen-yl](deutero)methyl}-2-methoxypyridine-3-carboxamide] | – | 19 nM | 36 nM
13 | COc1ncc(-c2ccc3nc(NC(C)=O)cn3n2)cc1C(=O)NCc1ccccc1OCC(C)C [Example 117, 5-{2-acetamidoimidazo[1,2-b]pyridazin-6-yl}-2-methoxy-N-{[2-(2-methyl-propoxy)phenyl]methyl}pyridine-3-carboxamide] | 19 nM | 6 nM | –
14 | CC(=O)Nc1cn2nc(-c3cnc(C)c(C(=O)Nc4cn(Cc5ccc(F)cc5)cn4)c3)ccc2n1 [Example 350, 5-{2-acetamidoimidazo[1,2-b]pyridazin-6-yl}-N-{1-[(4-fluorophenyl)methyl]-1H-imidazol-4-yl}-2-methylpyridine-3-carboxamide] | 169 nM | 27 nM | –
15 | CC(=O)Nc1cn2nc(-c3cncc(C(=O)NCCC(C)c4ccccc4)c3)ccc2n1 (stereo not shown) [Example 238, 5-{2-acetamidoimidazo[1,2-b]pyridazin-6-yl}-N-(3-phenylbutyl) pyridine-3-carboxamide] | 356 nM | 41 nM | –
16 | CC(=O)Nc1cn2nc(-c3cc(F)c(F)c(C(=O)NCc4cc(OC(F)(F)F)ccc4F)c3)ccc2n1 [Example 366, 5-{2-acetamidoimidazo [1,2-b]pyridazin-6-yl}-2,3-difluoro-N-{[2-fluoro-5-(trifluoromethoxy)phenyl]methyl} benzamide] | 123 nM | 13 nM | –
17 | Cc1c(F)cc(-c2ccc3nc(NC(=O)CN(C)C)cn3n2)cc1C(=O)NCC[C@H](O)c1ccc(Cl)cc1 [Example 362, N-[(3S)-3-(4-chlorophenyl)-3-hydroxypropyl]-5-{2-[2-(dimethylamino)acetamido]imidazo[1,2-b]pyridazin-6-yl}-3-fluoro-2-methylbenzamide] | 5 nM | 6 nM | –
18 | COc1nc(C)c(-c2ccc3nc(NC(C)=O)cn3n2)cc1C(=O)NCc1ccccc1OCC1CCCC1 [Example 316, N-{[2-(cyclopentylmethoxy)phenyl]methyl}-5-{2-acetamidoimidazo[1,2-b]pyridazin-6-yl}-2-methoxy-6-methylpyridine-3-carboxamide] | 8 nM | 4 nM | –
19 | COc1ncc(-c2ccc3nc(NC(C)=O)cn3n2)cc1C(=O)NCC[C@H](O)c1ccc(Cl)cc1 [Example 119, N-[(3S)-3-(4-chlorophenyl)-3-hydroxypropyl]-5-{2-acetamidoimidazo[1,2-b]pyridazin-6-yl}-2-methoxypyridine-3-carboxamide] | 94 nM | 116 nM | –
20 | [2H]C([2H])([2H])[C@H](NC(=O)c1cc(-c2ccc3nc(NC(C)=O)cn3n2)cnc1C)c1cc(OC(F)(F)F)ccc1F [Example 198, 5-{2-acetamidoimidazo[1,2-b]pyridazin-6-yl}-N-[(1S)-1-[2-fluoro-5-(trifluoromethoxy)phenyl](2,2,2-deutero)ethyl]-2-methylpyridine-3-carboxamide] | 14 nM | 16 nM | –

From patent US11440913B2, “Aminoimidazopyridazines as kinase inhibitors” (BRISTOL-MYERS SQUIBB COMPANY, priority 2017, dated 2022)
